Molecules are shown by their SMILES.

The subject of one assay is Human recombinant GST-PI3K. The assay is described as follows: PI3K induced-lipid phosphorylation, neomycin-SPA scintillation proximity assay. Type of assay: biochemical. Particulars: Human recombinant GST-PI3K, SPA. The text has this: The efficacy of compounds of the invention in inhibiting the PI3K induced-lipid phosphorylation may be tested in the following binding assay. The assay combines the scintillation proximity assay technology (SPA, Amersham) with the capacity of neomycin (a polycationic antibiotic) to bind phospholipids with high affinity and specificity. The Scintillation Proximity Assay is based on the properties of weakly emitting isotopes (such as ^3H, ^125I, ^33P). Coating SPA beads with neomycin allows the detection of phosphorylated lipid substrates after incubation with recombinant PI3K and radioactive ATP in the same well, by capturing the radioactive phospholipids to the SPA beads through their specific binding to neomycin.
To a 96 wells MTP containing 10 μL of the test compound of Formula (I) (solubilized in 10% DMSO; […]), the following assay components are added: 1) 10 μL of lipid micelles 2) 20 μL of Kinase buffer ([^33P]γATP162 μM/300 nCi, MgCl2 2.5 mM, DTT 2.5 mM, Na3VO4 25 uM in Hepes 40 mM, pH 7.4) and 3) 10 μL (100 ng) of Human recombinant GST-PI3K (in Hepes 40 mM, pH 7.4, ethylenglycol 4%). After incubation at room temperature for 120 minutes, with gentle agitation, the reaction is stopped by addition of 200 μL of a solution containing 250 μg of neomycin-coated PVT SPA beads, ATP 60 mM and EDTA 6.2 mM in PBS. The assay is further incubated at room temperature for 60 minutes with gentle agitation to allow binding of phospholipids to neomycin-SPA beads. After precipitation of the neomycin-coated PVT SPA beads for 5 minutes at 1500×g, radioactive PtdIns(3)P is quantified by scintillation counting in a Wallac MicroBeta™ plate counter.
The values indicated in Table I below refer to the IC50 (μM) with respect to PI3K, i.e. the amount necessary to achieve 50% inhibition of said target. Said values show a considerable inhibitory potency of quinoxaline compounds with regard to PI3K.
Background: In a scintillation proximity assay essentially only radioactivity close to the scintillant gives light.
Usually IC50 stands for the point on the concentration scale where inhibition reaches its midpoint. `COc1ccc(CCO)c(Nc2nc3ccccc3nc2NS(=O)(=O)c2ccc(CN(C)C)cc2)c1` [Example 89, 4-[(Dimethylamino)methyl]-N-(3-{[2-(2-hydroxyethyl)-5-methoxyphenyl]amino}quinoxalin-2-yl)benzenesulfonamide]: the IC50 worked out at 0.026 µM.

For `CCS(=O)(=O)Nc1nc2ccccc2nc1Nc1cc(OC)ccc1CCCO` [Example 48, N-(3-{[2-(3-Hydroxypropyl)-5-methoxyphenyl]amino}quinoxalin-2-yl)ethanesulfonamide], the IC50 worked out at 0.059 µM. On the same count and under the same terms, next, `COc1ccc(CCS(C)(=O)=O)c(Nc2nc3ccccc3nc2NS(=O)(=O)c2cn(C)c(CN(C)C)n2)c1` [Example 65, 2-[(Dimethylamino)methyl]-N-[3-({5-methoxy-2-[2-(methylsulfonyl)ethyl]phenyl}amino)quinoxalin-2-yl]-1-methyl-1H-imidazole-4-sulfonamide]: 0.087 µM; `COc1ccc(CCO)c(Nc2nc3ccccc3nc2NS(=O)(=O)c2cccnc2)c1` [Example 27, N-(3-{[2-(2-hydroxyethyl)-5-methoxyphenyl]amino}quinoxalin-2-yl)pyridine-3-sulfonamide]: 0.04 µM. On the same count and under the same terms, the result for `COc1ccc(C(=O)O)c(Nc2nc3ccccc3nc2NS(=O)(=O)c2cccnc2)c1` [Example 98, 4-methoxy-2-({3-[(pyridin-3-ylsulfonyl)amino]quinoxalin-2-yl}amino)benzoic acid] reads 4.68 µM; that for `COc1ccc(CC2CCS(=O)(=O)CC2)c(Nc2nc3ccccc3nc2NS(=O)(=O)c2cn(C)cn2)c1` [Example 26, N-[3-({2-[(1,1-dioxidotetrahydro-2H-thiopyran-4-yl)methyl]-5-methoxyphenyl}amino)auinoxalin-2-yl]-1-methyl-1H-imidazole-4-sulfonamide], 0.03 µM. For `COc1cc(Nc2nc3ccccc3nc2NS(=O)(=O)c2cn(C)cn2)cc(C(=O)N(C)C)c1` [Example 75, 3-Methoxy-N,N-dimethyl-5-[(3-{[(1-methyl-1H-imidazol-4-yl)sulfonyl]amino}quinoxalin-2-yl)amino]benzamide], the IC50 is 0.76 µM. Regarding `COc1cc(CN2CCN(C)CC2)cc(Nc2nc3ccccc3nc2NS(=O)(=O)c2cccnc2)c1` [Example 92, N-[3-({3-methoxy-5-[(4-methylpiperazin-1-yl)methyl]phenyl}amino)quinoxalin-2-yl]pyridine-3-sulfonamide], the IC50 came to 0.97 µM.

For the molecule `CCS(=O)(=O)Nc1nc2ccccc2nc1Nc1cc(OC)ccc1CCS(C)(=O)=O` [Example 51, N-[3-({5-Methoxy-2-[2-(methylsulfonyl)ethyl]phenyl}amino)quinoxalin-2-yl]ethanesulfonamide], the IC50 was found to be 0.088 µM. `COc1ccc(CC2CCCCC2)c(Nc2nc3ccccc3nc2NS(=O)(=O)c2cccnc2)c1` [Example 19, N-(3-{[2-(cyclohexylmethyl)-5-methoxyphenyl]amino}quinoxalin-2-yl)pyridine-3-sulfonamide]: the IC50 stood at 0.49 µM. With `COc1ccc(CCCS(C)(=O)=O)c(Nc2nc3ccccc3nc2NS(=O)(=O)c2cn(C)cn2)c1` [Example 68, N-[3-({5-Methoxy-2-[3-(methylsulfonyl)propyl]phenyl}amino)quinoxalin-2-yl]-1-methyl-1H-imidazole-4-sulfonamide], the IC50 is 0.05 µM. Turning to `COc1ccc(CCO)c(Nc2nc3ccccc3nc2NS(=O)(=O)CCCSC)c1` [Example 58, N-(3-{[2-(2-Hydroxyethyl)-5-methoxyphenyl]amino}quinoxalin-2-yl)-3-(methylthio)propane-1-sulfonamide], the IC50 came out at 0.075 µM. Consider `COc1ccc(CCO)c(Nc2nc3ccccc3nc2NS(=O)(=O)c2ccc(C(=O)N(C)C)cc2)c1` [Example 32, 4-{[(3-{[2-(2-Hydroxyethyl)-5-methoxyphenyl]amino}quinoxalin-2-yl)amino]sulfonyl}-N,N-dimethylbenzamide], for which the IC50 is 0.25 µM.

Turning to `COc1ccc(CCO)c(Nc2nc3ccccc3nc2NS(=O)(=O)c2ccc(C)[n+]([O-])c2)c1` [Example 33, N-(3-{[2-(2-Hydroxyethyl)-5-methoxyphenyl]amino}quinoxalin-2-yl)-6-methylpyridine-3-sulfonamide 1-oxide], the half-inhibitory concentration (IC50) stood at 0.106 µM. On the same count and under the same terms, next, `COc1ccc(CCS(C)(=O)=O)c(Nc2nc3ccccc3nc2NS(=O)(=O)CCCS(C)(=O)=O)c1` [Example 59, N-[3-({5-Methoxy-2-[2-(methylsulfonyl)ethyl]phenyl}amino)quinoxalin-2-yl]-3-(methylsulfonyl)propane-1-sulfonamide]: 0.35 µM; `COc1ccc(CCCO)c(Nc2nc3ccccc3nc2NS(=O)(=O)CCCS(C)(=O)=O)c1` [Example 60, N-(3-{[2-(3-Hydroxypropyl)-5-methoxyphenyl]amino}quinoxalin-2-yl)-3-(methylsulfonyl)propane-1-sulfonamide]: 0.12 µM; `COc1ccc(CCO)c(Nc2nc3ccccc3nc2NS(=O)(=O)c2ccc(CCCO)cc2)c1` [Example 93, N-(3-{[2-(2Hydroxyethyl)-5-methoxyphenyl]amino}quinoxalin-2-yl)-4-(3-hydroxypropyl)benzenesulfonamide]: 0.036 µM. Same read-out and setting: next, `COc1ccc(CC2CCN(S(C)(=O)=O)CC2)c(Nc2nc3ccccc3nc2NS(=O)(=O)c2cn(C)cn2)c1` [Example 97, N-{3-[(5-methoxy-2-{[1-(methylsulfonyl)piperidin-4-yl]methyl}phenyl)amino]quinoxalin-2-yl}-1-methyl-1H-imidazole-4-sulfonamide]: 0.16 µM. With `COc1ccc(CC2CCOCC2)c(Nc2nc3ccccc3nc2NS(=O)(=O)c2ccc(F)cc2)c1` [Example 10, 4-fluoro-N-(3-{[5-methoxy-2-(tetrahydro-2H-pyran-4-ylmethyl)phenyl]amino}quinoxalin-2-yl)benzenesulfonamide], the IC50 worked out at 0.15 µM. On the same count and under the same terms, next, `COc1ccc(CCO)c(Nc2nc3ccccc3nc2NS(=O)(=O)c2cn(C)cn2)c1` [Example 35, N-(3-{[2-(2-Hydroxyethyl)-5-methoxyphenyl]amino}quinoxalin-2-yl)-1-methyl-1H-imidazole-4-sulfonamide]: 0.048 µM; `COc1ccc(CCO)c(Nc2nc3ccccc3nc2NS(=O)(=O)c2ccc(OCCO)cc2)c1` [Example 94]: 0.034 µM. As to `COc1ccc(CCO)c(Nc2nc3ccccc3nc2NS(=O)(=O)C2CCCCC2)c1` [Example 45, N-(3-{[2-(2-Hydroxyethyl)-5-methoxyphenyl]amino}quinoxalin-2-yl) cyclohexanesulfonamide], the IC50 amounted to 0.057 µM. As to `COc1ccc(CCS(C)(=O)=O)c(Nc2nc3ccccc3nc2NS(=O)(=O)C(C)C)c1` [Example 52, N-[3-({5-Methoxy-2-[2-(methylsulfonyl)ethyl]phenyl}amino)quinoxalin-2-yl]propane-2-sulfonamide], the IC50 was 0.16 µM. Turning to `COc1ccc(CCS(C)(=O)=O)c(Nc2nc3ccccc3nc2NS(=O)(=O)c2cn(C)cn2)c1` [Example 40, N-[3-({5-Methoxy-2-[2-(methylsulfonyl)ethyl]phenyl}amino)quinoxalin-2-yl]-1-methyl-1H-imidazole-4-sulfonamide], the IC50 was 0.084 µM. Regarding `COC(=O)c1ccc(OC)cc1Nc1nc2ccccc2nc1NS(C)(=O)=O` [Example 3, methyl 4-methoxy-2-({3-[(methylsulfonyl)amino]quinoxalin-2-yl}amino)benzoate], the IC50 is 1.65 µM.

As to `COc1ccc(CCCO)c(Nc2nc3ccccc3nc2NS(=O)(=O)c2ccc(NC(=O)CN(C)C)cc2)c1` [Example 71, 2-Dimethylamino-N-(4-{[(3-{[2-(3-hydroxypropyl)-5-methoxyphenyl]amino}quinoxalin-2-yl)]sulfamoyl}phenyl)-acetamide], the half-maximal inhibitory concentration (IC50) came to 0.032 µM. Take `COc1ccc(CC2CCS(=O)(=O)CC2)c(Nc2nc3ccccc3nc2NS(=O)(=O)c2ccc(CN(C)C)cc2)c1` [Example 85, 4-[(dimethylamino)methyl]-N-[3-({2-[(1,1-dioxidotetrahydro-2H-thiopyran-4-yl)methyl]-5-methoxyphenyl}amino)quinoxalin-2-yl]benzenesulfonamide]: the IC50 came to 0.01 µM.

Regarding `COc1ccc(CC2CCCCC2)c(Nc2nc3ccccc3nc2NS(=O)(=O)c2ccc(CN(C)C)cc2)c1` [Example 87, N-(3-{[2-(cyclohexylmethyl)-5-methoxyphenyl]amino}quinoxalin-2-yl)-4-[(dimethylamino)methyl]benzenesulfonamide], the IC50 was 0.76 µM.

The same assay, now with this note: at 20 μM.
Consider `COc1ccc(CC2CCCCC2)c(Nc2nc3ccccc3nc2NS(C)(=O)=O)c1` [Example 21, N-(3-{[2-(cyclohexylmethyl)-5-methoxyphenyl]amino}quinoxalin-2-yl)methanesulfonamide], for which the “PI3K inhibition at single concentration” value worked out at 68% at 20 μM.

(Values after US8614215B2, “Quinoxaline inhibitors of phosphoinositide-3-kinases (PI3Ks)” (Merck Serono SA, priority 2007, dated 2013).)
